From patent US20240150290A1, “HETEROCYCLIC P2Y14 RECEPTOR ANTAGONISTS” (priority 2021, published 2024)

How the values were obtained:
hP2Y14R = biological target: T1, hP2Y14R (Homo sapiens, UniProt Q15391); test: Inhibition of fluorescent antagonist binding in whole hP2Y14R-expressing CHO cells (flow cytometry); settings: Table 2; tracer 2 (20 nM, 45 min), CHO cells; read-out: hP2Y14R, IC50
T1 construct: expressed in transfected cells; host or cells: CHO cells
T1 sequence (Q15391 1-338): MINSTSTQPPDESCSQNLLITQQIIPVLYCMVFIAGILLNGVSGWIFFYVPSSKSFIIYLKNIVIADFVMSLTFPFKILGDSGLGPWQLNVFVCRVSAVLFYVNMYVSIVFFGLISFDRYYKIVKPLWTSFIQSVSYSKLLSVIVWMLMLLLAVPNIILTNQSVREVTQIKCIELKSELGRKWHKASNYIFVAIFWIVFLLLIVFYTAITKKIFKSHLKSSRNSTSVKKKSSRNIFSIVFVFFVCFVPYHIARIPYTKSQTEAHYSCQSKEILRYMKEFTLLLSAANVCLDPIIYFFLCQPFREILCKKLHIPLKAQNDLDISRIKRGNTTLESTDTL

mP2Y14R = biological target: T2, mP2Y14R (Mus musculus, UniProt Q9ESG6); test: cell-based
T2 sequence (Q9ESG6 1-338): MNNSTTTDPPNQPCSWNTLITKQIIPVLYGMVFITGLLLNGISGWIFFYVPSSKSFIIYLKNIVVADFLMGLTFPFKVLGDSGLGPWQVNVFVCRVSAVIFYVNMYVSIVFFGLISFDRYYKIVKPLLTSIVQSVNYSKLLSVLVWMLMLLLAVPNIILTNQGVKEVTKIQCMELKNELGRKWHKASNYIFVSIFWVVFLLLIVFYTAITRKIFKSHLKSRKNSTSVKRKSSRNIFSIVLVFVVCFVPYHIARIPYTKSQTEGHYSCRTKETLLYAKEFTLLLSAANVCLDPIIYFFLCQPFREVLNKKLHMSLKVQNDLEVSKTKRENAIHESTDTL
Excerpt: Desirably, receptor affinity is maintained across species, facilitating performance in in vivo preclinical testing in small animals, with the mouse being the most commonly used species in initial evaluation.

CYP1A2 = biological target: T3, CYP1A2 (Homo sapiens, UniProt P05177); test: CYP1A2 inhibition; format: in vitro ADME; settings: Table 4
T3 sequence (P05177 1-516): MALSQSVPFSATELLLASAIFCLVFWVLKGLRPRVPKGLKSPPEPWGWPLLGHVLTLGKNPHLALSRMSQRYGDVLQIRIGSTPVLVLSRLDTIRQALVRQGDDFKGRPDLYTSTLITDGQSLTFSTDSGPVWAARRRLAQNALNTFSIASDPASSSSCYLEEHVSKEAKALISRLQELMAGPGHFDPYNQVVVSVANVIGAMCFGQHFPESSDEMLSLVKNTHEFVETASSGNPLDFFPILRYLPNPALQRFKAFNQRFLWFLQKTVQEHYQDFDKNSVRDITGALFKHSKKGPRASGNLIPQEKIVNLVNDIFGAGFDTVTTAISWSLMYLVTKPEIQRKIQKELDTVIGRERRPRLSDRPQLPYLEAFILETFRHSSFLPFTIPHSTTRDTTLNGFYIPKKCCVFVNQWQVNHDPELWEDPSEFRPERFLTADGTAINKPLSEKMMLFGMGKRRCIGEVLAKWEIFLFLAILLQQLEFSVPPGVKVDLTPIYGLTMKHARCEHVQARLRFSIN

CYP2C19 = CYP2C19 (Homo sapiens, UniProt P33261); test: CYP2C19 inhibition; format: in vitro ADME; settings: Table 4
CYP2D6 = CYP2D6 (Homo sapiens, UniProt P10635); test: CYP2D6 inhibition; format: in vitro ADME; settings: Table 4
CYP3A4 = CYP3A4 (Homo sapiens, UniProt P08684); test: CYP3A4 inhibition; format: in vitro ADME; settings: Table 4
[1] = Microsomal stability, rat; format: in vitro ADME; settings: Table 4
[2] = Microsomal stability, mouse; format: in vitro ADME; settings: Table 4
in vivo = settings: Wistar, rat, iv, 0.5 mg/kg
CYP2C9 = CYP2C9 (Homo sapiens, UniProt P11712); test: CYP2C9 inhibition; settings: read-out: CYP2C9 (IC50); Table 4
Plasma stability, rat = settings: Table 4
Plasma stability, mouse = settings: Table 4
[3] = Microsomal stability, human; settings: Table 4
[4] = Aqueous solubility, pION method; settings: mean ± SD, Table 4
[5] = Stability in simulated gastric fluid; settings: Table 4
[6] = Stability in simulated intestinal fluid; settings: Table 4
hERG ion channel = hERG ion channel (Homo sapiens, UniProt Q12809); test: hERG ion channel block, patch clamp assay
[7] = Pharmacokinetics in Wistar rats (i.v., i.p.)
[8] = tested on: CCI-induced mechano-allodynia; test: Chronic constriction injury (CCI) mouse model of neuropathic pain; settings: 10 μmol/kg, i.p., day 7 post-injury

hERG ion channel, sequence (Q12809 whole entry): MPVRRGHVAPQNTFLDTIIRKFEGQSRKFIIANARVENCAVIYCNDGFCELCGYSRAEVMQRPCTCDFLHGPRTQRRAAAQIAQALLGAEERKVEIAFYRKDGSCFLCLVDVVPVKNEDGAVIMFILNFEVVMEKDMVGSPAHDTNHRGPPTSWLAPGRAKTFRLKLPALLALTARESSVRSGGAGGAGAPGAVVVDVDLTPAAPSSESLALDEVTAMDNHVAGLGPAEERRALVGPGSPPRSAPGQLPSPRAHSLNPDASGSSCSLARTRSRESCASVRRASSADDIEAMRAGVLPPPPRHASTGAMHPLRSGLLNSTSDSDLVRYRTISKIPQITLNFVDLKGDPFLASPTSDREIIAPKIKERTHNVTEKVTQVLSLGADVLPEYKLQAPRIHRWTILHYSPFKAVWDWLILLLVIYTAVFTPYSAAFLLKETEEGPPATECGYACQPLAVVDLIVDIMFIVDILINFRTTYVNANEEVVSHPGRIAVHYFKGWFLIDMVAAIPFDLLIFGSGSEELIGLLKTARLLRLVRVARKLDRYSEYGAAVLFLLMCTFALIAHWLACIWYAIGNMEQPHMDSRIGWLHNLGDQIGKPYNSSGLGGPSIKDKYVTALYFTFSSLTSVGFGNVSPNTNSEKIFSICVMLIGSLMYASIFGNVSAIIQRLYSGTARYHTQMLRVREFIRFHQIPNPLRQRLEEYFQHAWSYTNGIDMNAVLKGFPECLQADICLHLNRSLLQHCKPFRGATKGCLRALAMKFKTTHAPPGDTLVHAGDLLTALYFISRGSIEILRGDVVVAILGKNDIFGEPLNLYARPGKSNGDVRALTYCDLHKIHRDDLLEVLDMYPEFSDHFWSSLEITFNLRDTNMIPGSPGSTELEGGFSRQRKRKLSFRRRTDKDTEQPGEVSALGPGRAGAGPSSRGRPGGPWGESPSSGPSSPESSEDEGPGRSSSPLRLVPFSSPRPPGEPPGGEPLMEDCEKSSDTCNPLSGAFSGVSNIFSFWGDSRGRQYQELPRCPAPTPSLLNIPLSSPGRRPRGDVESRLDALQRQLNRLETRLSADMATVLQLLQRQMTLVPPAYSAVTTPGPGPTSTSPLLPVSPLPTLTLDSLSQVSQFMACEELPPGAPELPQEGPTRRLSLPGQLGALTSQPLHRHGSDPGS
CYP2D6, sequence (P10635 whole entry): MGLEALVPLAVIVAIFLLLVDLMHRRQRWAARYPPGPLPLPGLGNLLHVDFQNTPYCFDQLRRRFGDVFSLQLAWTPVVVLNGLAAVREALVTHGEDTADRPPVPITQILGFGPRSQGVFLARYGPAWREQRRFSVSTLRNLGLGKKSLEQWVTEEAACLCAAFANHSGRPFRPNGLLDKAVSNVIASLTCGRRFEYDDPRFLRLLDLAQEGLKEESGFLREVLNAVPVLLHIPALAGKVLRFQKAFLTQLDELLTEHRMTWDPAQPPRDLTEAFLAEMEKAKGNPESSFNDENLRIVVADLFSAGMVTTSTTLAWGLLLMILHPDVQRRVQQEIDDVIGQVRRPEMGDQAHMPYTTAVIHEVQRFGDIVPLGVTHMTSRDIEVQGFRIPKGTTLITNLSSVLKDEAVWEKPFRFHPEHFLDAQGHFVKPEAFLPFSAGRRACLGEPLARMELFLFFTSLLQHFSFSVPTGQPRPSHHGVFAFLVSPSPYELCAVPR
CYP2C9, sequence (P11712 whole entry): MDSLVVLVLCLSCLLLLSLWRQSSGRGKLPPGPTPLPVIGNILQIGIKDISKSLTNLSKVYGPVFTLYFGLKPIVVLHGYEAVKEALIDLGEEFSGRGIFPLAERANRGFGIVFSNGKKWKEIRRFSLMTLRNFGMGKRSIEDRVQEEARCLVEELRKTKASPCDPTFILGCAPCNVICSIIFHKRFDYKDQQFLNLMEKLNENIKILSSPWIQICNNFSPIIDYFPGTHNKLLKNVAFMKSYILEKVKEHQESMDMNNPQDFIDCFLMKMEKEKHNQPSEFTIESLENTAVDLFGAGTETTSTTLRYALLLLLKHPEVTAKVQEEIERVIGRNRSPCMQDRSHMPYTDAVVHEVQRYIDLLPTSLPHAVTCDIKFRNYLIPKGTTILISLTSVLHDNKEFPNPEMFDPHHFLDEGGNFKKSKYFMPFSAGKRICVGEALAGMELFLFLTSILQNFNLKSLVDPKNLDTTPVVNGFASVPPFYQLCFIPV
CYP2C19, sequence (P33261 whole entry): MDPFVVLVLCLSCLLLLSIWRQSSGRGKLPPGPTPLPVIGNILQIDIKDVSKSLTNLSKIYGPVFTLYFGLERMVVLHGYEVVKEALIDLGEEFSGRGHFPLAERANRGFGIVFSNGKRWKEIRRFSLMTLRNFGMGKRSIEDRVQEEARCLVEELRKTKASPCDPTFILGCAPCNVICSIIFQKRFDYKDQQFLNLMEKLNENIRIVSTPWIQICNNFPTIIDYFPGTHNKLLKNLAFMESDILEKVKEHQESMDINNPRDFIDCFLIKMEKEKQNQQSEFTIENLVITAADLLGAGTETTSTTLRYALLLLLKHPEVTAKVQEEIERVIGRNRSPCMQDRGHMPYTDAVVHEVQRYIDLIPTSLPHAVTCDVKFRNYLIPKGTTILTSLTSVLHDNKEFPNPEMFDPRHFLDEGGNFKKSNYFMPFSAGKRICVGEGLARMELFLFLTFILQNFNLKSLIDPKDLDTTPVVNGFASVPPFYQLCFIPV
CYP3A4, sequence (P08684 whole entry): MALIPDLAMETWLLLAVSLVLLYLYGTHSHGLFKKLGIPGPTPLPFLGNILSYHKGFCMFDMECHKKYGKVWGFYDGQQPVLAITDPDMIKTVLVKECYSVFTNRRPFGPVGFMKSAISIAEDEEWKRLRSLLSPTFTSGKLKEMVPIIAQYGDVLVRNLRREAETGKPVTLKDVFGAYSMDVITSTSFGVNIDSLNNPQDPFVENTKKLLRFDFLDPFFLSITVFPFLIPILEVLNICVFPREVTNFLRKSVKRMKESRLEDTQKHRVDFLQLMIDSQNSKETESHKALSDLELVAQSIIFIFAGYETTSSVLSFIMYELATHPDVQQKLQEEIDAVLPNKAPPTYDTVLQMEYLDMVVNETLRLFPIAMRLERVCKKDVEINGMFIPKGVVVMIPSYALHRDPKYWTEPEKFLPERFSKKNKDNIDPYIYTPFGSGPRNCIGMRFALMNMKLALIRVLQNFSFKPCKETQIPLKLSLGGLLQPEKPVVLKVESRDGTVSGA

## O=C(O)c1cc(-c2ccc(-c3cc(CO)on3)cc2)c2ccc(-c3ccc(C(F)(F)F)cc3)cc2c1 [Compound 32, 4-(4-(5-(Hydroxymethyl)isoxazol-3-yl)phenyl)-7-(4-(trifluoromethyl)phenyl)-2-naphthoic acid]
hP2Y14R
  IC50: 0.015 ± 0.0044 µM
mP2Y14R; comparison of species, in words
  affinity at the mP2Y14R vs the human homologue: nearly the same affinity in the two species
mP2Y14R; read-out: mP2Y14R, IC50, Table 2, tracer 2 (20 nM, 45 min), HEK293 cells
  IC50: 0.0186 ± 0.0084 µM
CYP1A2
  IC50: > 30 µM
CYP2C19
  IC50: > 30 µM
CYP2D6
  IC50: > 30 µM
CYP3A4
  IC50: > 30 µM
[1]
  Microsomal stability (t1/2, min): 47.7 min
[2]
  Microsomal stability (t1/2, min): >240 (m) min
In vivo
  bioavailability: 100%
CYP2C9
  IC50: 10.4 µM
Plasma stability, rat
  Plasma stability (t1/2, min): TBD (h); >240 (r); min
Plasma stability, mouse
  Plasma stability (t1/2, min): >240 (m) min
[3]
  Microsomal stability (t1/2, min): > 240 min
[4]; pH 4.0
  aqueous solubility (pH 4.0, μg/mL): 0.14 ± 0.02 μg/mL
[4]; pH 7.4
  aqueous solubility (pH 7.4, μg/mL): 7.63 ± 1.93 μg/mL
[5]
  Simulated gastric fluid (t1/2, min): 161 min
[6]
  Simulated intestinal fluid (t1/2, min): >240 min
hERG ion channel
  IC50: > 30 µM
[7]; i.v. administration in rat, 0.5 mg/kg, Table 4
  t1/2: 0.689 h
[7]; rat, i.p., 1.0 mg/kg
  AUC0-last: 650 ng·h/mL
  AUC0-∞: 700 ng·h/mL
  Cl: 23.83 mL/min/kg
  Cmax: 88.4 ng/mL
  F (%): 139%
  Kel: 0.096 h⁻¹
  T1/2: 7.23 h
  Vd (mL/kg): 14,900 mL/kg
[7]; rat, i.p., 3.0 mg/kg
  AUC0-last: 2060 ng·h/mL
  AUC0-∞: 2120 ng·h/mL
  Cl: 23.67 mL/min/kg
  Cmax: 315 ng/mL
  F (%): 147%
  Kel: 0.148 h⁻¹
  T1/2: 4.68 h
  Vd: 9.57 L/kg
[7]; rat, i.p., 10 mg/kg
  AUC0-last: 4900 ng·h/mL
  AUC0-∞: 4920 ng·h/mL
  Cl: 33.83 mL/min/kg
  Cmax: 786 ng/mL
  F (%): 105%
  Kel: 0.233 h⁻¹
  T1/2: 2.98 h
  Vd: 8.73 L/kg
[7]; rat, i.v., 0.5 mg/kg
  AUC0-last: 234 ng·h/mL
  AUC0-∞: 238 ng·h/mL
  Cl: 35.17 mL/min/kg
  Cmax: 359 ng/mL
  Kel: 1.01 h⁻¹
  T1/2: 0.689 h
  Vd: 2.09 L/kg
[8]
  reversal of mechano-allodynia (figure legend): reversal of CCI-induced mechano-allodynia
